This note sets out measurements from patent US8629163B2, “Tetrakis-quaternary ammonium salts and methods for modulating neuronal nicotinic acteylcholine receptors” (University of Kentucky Research Foundation, priority 2007, dated 2014).

Assay [1] concerns the target T1, α7-type neuronal nicotinic acetylcholine receptors (Rattus norvegicus, UniProt Q05941).
T1 construct: The brain tissue was homogenized with a Tekmar Polytron; from tissue; host or cells: rat brain membranes (whole brain without cortex and cerebellum)
Briefly: Inhibition of [^3H]methyllycaconitine (MLA) binding to rat brain membranes. Particulars: % inhibition at 100 nM analog; 3 nM [^3H]MLA; nonspecific 10 μM nicotine; 3-4 independent experiments. On the procedure: (§1) Rat brain was dissected into the whole brain tissue without cortex and cerebellum and was frozen in liquid nitrogen and stored at −70° C. until use. The brain tissue was homogenized with a Tekmar Polytron (setting 40) in 20 volumes of ice-cold hypotonic buffer (2 mM HEPES, 14.4 mM NaCl, 0.15 mM KCl, 0.2 mM CaCl2 and […], pH=7.5). The homogenate was centrifuged at 25,000×g for 17 minutes at 4° C. The pellet was resuspended in 20 volumes of the same buffer, and incubated for 10 min at 37° C. The resuspension was cooled to 4° C. and then centrifuged at the above parameters. The pellet was resuspended by sonicaton and centrifuged using the same conditions. The final pellet was stored at −20° C. under 10 ml of the incubation buffer and was suspended just before incubation with radioligand.
(§2) The binding of [^3H]NIC and [^3H]MLA to probe α4β2 and α7-type neuronal nicotinic acetylcholine receptors, respectively, was determined using [^3H]NIC (67 Ci/mmol) and [^3H]MLA (60 Ci/mmol), purchased from Perkin Elmer Life Sciences, Boston, Mass., U.S.A. and American Radiolabel Chemicals, Inc., St. Louis, Mo., U.S.A. Binding was performed in duplicate, in a final volume of 250 μl of the incubation medium, containing 20 mM HEPES, 144 mM NaCl, 1.5 mM KCl, 2 mM CaCl2, and 1 mM MgSO4, pH=7.5. Reaction was initiated by the addition of 100 μL of membrane suspension to the samples containing a desired concentration of test compounds and 3 nM [^3H]NIC or 3 nM [^3H]MLA (final concentrations) and incubated for 60 min at room temperature. Total binding was measured in the absence of unlabelled ligand and nonspecific binding was determined in the presence of 10 μM cytisine, for [^3H]NIC binding, and 10 μM nicotine for [^3H]MLA. The binding reaction was terminated by dilution of samples with 3 mL of ice-cold incubation buffer followed by immediate filtration through Unifilter-96 GFB-filter plates presoaked in 0.5% polyethylenimine using a Filtermate Harvester (Perkin Elmer, Shelton, Conn., U.S.A.). Filters were rinsed five times with 350 μL of ice-cold buffer, and then filter plates were dried at 48° C. for 60 min, bottom sealed and each well filled with 40 μL of Packard Microscint-20 cocktail. After 60 min of gentle shaking, the filter plates were top sealed and radioactivity measured using a Packard TopCount NXT scintillation counter. CPMs were processed through a Packard Windows NT operating system. Protein was measured using the Bradford dye-binding procedure with bovine serum albumin as the standard.
(§3) The ability of a probe concentration of 100 nM of the tetrakis-quaternary ammonium salts to inhibit specific binding was evaluated.
(§4) ^aData are % inhibition at 100 nM concentration of analog for 3-4 independent experiments. Specific binding in the [^3H]NIC binding assay is calculated as the difference between the total binding of 3 nM [^3H]NIC and nonspecific binding in the presence of 10 μM cytisine. Specific binding for the [^3H]MLA binding assay is calculated as the difference between the total binding of 3 nM [^3H]MLA to the receptors alone and its nonspecific binding in the presence of 10 μM nicotine. Analog-induced inhibition of nicotine-evoked [^3H]DA release is calculated as a percent of that in the absence of analog.

Assay [2] addresses T2, α4β2 neuronal nicotinic acetylcholine receptors (Rattus norvegicus, UniProt P09483+P12390).
T2 construct: The brain tissue was homogenized with a Tekmar Polytron; from tissue; host or cells: rat brain membranes (whole brain without cortex and cerebellum)
Briefly: Inhibition of [^3H]nicotine (NIC) binding to rat brain membranes. The conditions noted are these: % inhibition at 100 nM analog; 3 nM [^3H]NIC; nonspecific 10 μM cytisine; 3-4 independent experiments. On the procedure: as §1, §2, §3, §4

The subject of the next assay is rat striatal slices. The assay is described as follows: Nicotine-evoked [^3H]dopamine release (overflow) from superfused rat striatal slices. Format: cell-based. Particulars: for inhibition at 0.1 µM: % inhibition at 100 nM analog, 10 μM S(-)nicotine, rat striatal slices, read-out: Inhibition of Nicotine-evoked [^3H]DA release; for IC50: Rattus norvegicus, full concentration response assay, 4-5 independent experiments in duplicate, 10 μM nicotine, read-out: IC50, inhibition of nicotine-evoked [^3H]DA release (converted). On the procedure: Rat striatal slices (500 μm thickness, 6 mg wet weight) were incubated for 30 minutes in Krebs buffer (118 mM NaCl, 4.7 mM KCl, 1.2 mM MgCl2, 1.0 mM NaH2PO4, 1.3 mM CaCl2, 11.1 mM glucose, 25 mM NaHCO3, 0.11 mM L-ascorbic acid, and 0.004 mM disodium EDTA; pH 7.4, and saturated with 95% O2/5% CO2) in a metabolic shaker at 34° C. Slices were rinsed with 15 mL of fresh buffer and incubated for an additional 30 minutes in fresh buffer containing 0.1 μM [^3H]dopamine (DA; 6 slices/3 mL). Subsequently, slices were rinsed with 15 mL of fresh buffer and each slice transferred to a superfusion chamber. Slices were superfused (0.6 mL/min) for 60 minutes with Krebs buffer containing nomifensine (10 μM) and pargyline (10 μM) and maintained at 34° C., pH 7.4, with continual aeration (95% O2/5% CO2). Two 4-minute samples (2.4 mL each) were collected to determine basal outflow of [^3H]DA. Slices were superfused for 36 min following addition of the analogs to the superfusion buffer after the collection of the second sample and nine 4-minute samples were collected. For initial probe assays, the concentration of analog was 100 nM. For concentration-response studies, the concentration of analog varied from 1 nM to 10 μM, and the effect of each concentration was determined using striatal slices obtained from an individual animal (repeated measures design). Subsequently, S(−)nicotine (10 μM) was added to the buffer and nine additional 4-minute samples were collected. At the end of the experiment, each slice was solubilized and the [^3H] content of the tissue determined.
Radioactivity in the superfusate and tissue samples was determined by liquid scintillation spectroscopy. Fractional release for tritium collected in each sample was divided by the total tritium present in the tissue at the time of sample collection and was expressed as a percentage of total tritium. Basal [^3H]outflow was calculated from the average of the tritium collected in the two […] samples just before addition of the analog. The sum of the increase in collected tritium resulting from either exposure to the test compound or exposure to S(−)nicotine in the absence and presence of the test compound equaled total [^3H]overflow. [^3H]Overflow was calculated by subtracting the [^3H]outflow during an equivalent period of prestimulation from the values in samples collected during and after drug exposure. Inasmuch as the radiolabelled compounds were not separated and identified, the tritium collected in superfusate is referred to as either [^3H]outflow or [^3H]overflow, rather than as [^3H]DA. [^3H]Overflow primarily represents [^3H]DA in the presence of nomifensine and pargyline in the superfusion buffer. […]
Analogs were also evaluated for their ability to inhibit NIC evoked [^3H]DA release. Antagonist activity was evaluated by comparing the NIC-evoked [^3H]overflow in the absence and presence of the analogs (see Table 1). […] Data are expressed as M±SEM. Control represents absence of compound. N=4/analog, *p<0.05
as §4
^bIC50 from full concentration response assay; data from 4-5 independent experiments, each performed in duplicate.

T1 sequence (Q05941 23-502): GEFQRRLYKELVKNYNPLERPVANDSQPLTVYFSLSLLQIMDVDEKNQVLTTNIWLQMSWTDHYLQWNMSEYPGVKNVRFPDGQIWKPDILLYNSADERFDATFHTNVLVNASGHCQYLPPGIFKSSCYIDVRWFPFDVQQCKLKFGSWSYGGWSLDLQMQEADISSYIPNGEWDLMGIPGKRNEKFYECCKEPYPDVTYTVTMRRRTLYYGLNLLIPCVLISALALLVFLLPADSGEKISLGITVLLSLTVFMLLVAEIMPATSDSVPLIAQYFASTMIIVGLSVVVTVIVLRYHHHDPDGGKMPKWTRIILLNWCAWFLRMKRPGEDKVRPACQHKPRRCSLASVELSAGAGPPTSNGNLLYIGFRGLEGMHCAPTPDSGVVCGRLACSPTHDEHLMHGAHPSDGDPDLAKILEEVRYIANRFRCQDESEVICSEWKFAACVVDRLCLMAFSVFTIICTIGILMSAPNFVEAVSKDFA
T2 sequence (P09483 31-630): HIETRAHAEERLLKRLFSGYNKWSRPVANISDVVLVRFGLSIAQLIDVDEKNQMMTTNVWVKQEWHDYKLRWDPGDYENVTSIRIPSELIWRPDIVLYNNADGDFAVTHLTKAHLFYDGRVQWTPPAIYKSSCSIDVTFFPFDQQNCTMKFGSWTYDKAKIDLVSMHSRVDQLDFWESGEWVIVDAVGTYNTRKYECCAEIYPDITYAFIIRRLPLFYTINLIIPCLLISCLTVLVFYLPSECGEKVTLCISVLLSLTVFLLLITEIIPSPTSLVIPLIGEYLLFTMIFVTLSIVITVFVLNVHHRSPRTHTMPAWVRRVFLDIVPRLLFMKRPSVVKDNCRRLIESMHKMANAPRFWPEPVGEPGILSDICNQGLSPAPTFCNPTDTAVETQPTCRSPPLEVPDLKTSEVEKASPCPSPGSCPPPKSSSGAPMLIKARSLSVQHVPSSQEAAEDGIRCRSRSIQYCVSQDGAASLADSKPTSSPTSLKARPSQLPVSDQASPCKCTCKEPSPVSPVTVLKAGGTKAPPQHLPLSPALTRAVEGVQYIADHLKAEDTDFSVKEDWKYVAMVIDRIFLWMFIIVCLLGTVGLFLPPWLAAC
T2 sequence (P12390 25-500): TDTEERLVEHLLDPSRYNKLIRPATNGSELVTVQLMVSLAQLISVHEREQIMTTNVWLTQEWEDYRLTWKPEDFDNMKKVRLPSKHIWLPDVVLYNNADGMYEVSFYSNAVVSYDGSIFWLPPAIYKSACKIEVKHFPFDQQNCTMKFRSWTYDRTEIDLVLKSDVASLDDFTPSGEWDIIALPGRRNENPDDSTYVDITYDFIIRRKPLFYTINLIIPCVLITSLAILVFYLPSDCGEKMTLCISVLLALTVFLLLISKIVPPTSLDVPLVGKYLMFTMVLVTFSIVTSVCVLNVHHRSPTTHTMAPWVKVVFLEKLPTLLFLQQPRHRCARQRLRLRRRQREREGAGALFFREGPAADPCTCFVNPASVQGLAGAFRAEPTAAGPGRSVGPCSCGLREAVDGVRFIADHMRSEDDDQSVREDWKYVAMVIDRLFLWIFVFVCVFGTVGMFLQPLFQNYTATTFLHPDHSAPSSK

For the molecule `[Br-].[Br-].[Br-].[Br-].c1ccc(Cc2ccc[n+](CCCCCc3cc(CCCCC[n+]4cccc(Cc5ccccc5)c4)c(CCCCC[n+]4cccc(Cc5ccccc5)c4)cc3CCCCC[n+]3cccc(Cc4ccccc4)c3)c2)cc1`, the “Inhibition of [^3H]MLA binding” value in assay [1] came out at 16 ± 8%. In addition, in assay [2], the “Inhibition of [^3H]Nicotine binding” value worked out at 13 ± 3.3%. For the same molecule, in the assay with rat striatal slices, the inhibition at 0.1 µM was determined as 54 ± 10% and the IC50 was 28 nM.

Consider `C(#Cc1cc(C#CCCC[n+]2cccc(Cc3ccccc3)c2)c(C#CCCC[n+]2cccc(Cc3ccccc3)c2)cc1C#CCCC[n+]1cccc(Cc2ccccc2)c1)CCC[n+]1cccc(Cc2ccccc2)c1.[Br-].[Br-].[Br-].[Br-]`, for which the “Inhibition of [^3H]MLA binding” value in assay [1] is 53 ± 3.5%. Moreover, the “Inhibition of [^3H]Nicotine binding” value in assay [2] was 2.9 ± 2.9%. In the assay on rat striatal slices, the inhibition at 0.1 µM worked out at 17 ± 17%.

For `Cc1ccc[n+](CCCC#Cc2cc(C#CCCC[n+]3cccc(C)c3)c(C#CCCC[n+]3cccc(C)c3)cc2C#CCCC[n+]2cccc(C)c2)c1.[Br-].[Br-].[Br-].[Br-]`, the “Inhibition of [^3H]MLA binding” value in assay [1] is listed as 18 ± 7.8%. Besides, the “Inhibition of [^3H]Nicotine binding” value in assay [2] is reported as 11 ± 11%. Further, the inhibition at 0.1 µM in the assay on rat striatal slices came out at 16 ± 13%.

`Cc1ccc[n+](CCCCCc2cc(CCCCC[n+]3cccc(C)c3)c(CCCCC[n+]3cccc(C)c3)cc2CCCCC[n+]2cccc(C)c2)c1.[Br-].[Br-].[Br-].[Br-]`: the “Inhibition of [^3H]MLA binding” value in assay [1] came to 12 ± 6.9%. Moreover, the “Inhibition of [^3H]Nicotine binding” value in assay [2] came to 12 ± 4.4%. In the assay on rat striatal slices, the inhibition at 0.1 µM is 8 ± 4%.

As for `[Br-].[Br-].[Br-].[Br-].c1c(CCCCC[n+]2ccc3c(c2)CCCC3)c(CCCCC[n+]2ccc3c(c2)CCCC3)cc(CCCCC[n+]2ccc3c(c2)CCCC3)c1CCCCC[n+]1ccc2c(c1)CCCC2`, the “Inhibition of [^3H]MLA binding” value in assay [1] came out at 27 ± 15%. Further, the “Inhibition of [^3H]Nicotine binding” value in assay [2] amounted to 0.9 ± 0.9%. Also, in the assay with rat striatal slices, the inhibition at 0.1 µM is 27 ± 2% and the IC50 was 56 nM.

As for `[Br-].[Br-].[Br-].[Br-].c1ccc2c[n+](CCCCCc3cc(CCCCC[n+]4ccc5ccccc5c4)c(CCCCC[n+]4ccc5ccccc5c4)cc3CCCCC[n+]3ccc4ccccc4c3)ccc2c1`, the “Inhibition of [^3H]MLA binding” value in assay [1] was determined as 24 ± 13%. Further, the “Inhibition of [^3H]Nicotine binding” value in assay [2] was 6.5 ± 6.5%. Besides, in the assay with rat striatal slices, the inhibition at 0.1 µM amounted to 63 ± 12% and the IC50 is 56 nM.

For the molecule `Cc1cc[n+](CCCC#Cc2cc(C#CCCC[n+]3ccc(C)cc3)c(C#CCCC[n+]3ccc(C)cc3)cc2C#CCCC[n+]2ccc(C)cc2)cc1.[Br-].[Br-].[Br-].[Br-]`, the “Inhibition of [^3H]MLA binding” value in assay [1] was 3.0 ± 3.0%. For the same molecule, the “Inhibition of [^3H]Nicotine binding” value in assay [2] is 24 ± 5.5%. In addition, in the assay with rat striatal slices, the inhibition at 0.1 µM is 35 ± 14%.

Consider `OCCCc1ccc[n+](CCCC#Cc2cc(C#CCCC[n+]3cccc(CCCO)c3)c(C#CCCC[n+]3cccc(CCCO)c3)cc2C#CCCC[n+]2cccc(CCCO)c2)c1.[Br-].[Br-].[Br-].[Br-]`, for which, in assay [1], the “Inhibition of [^3H]MLA binding” value was determined as 5.7 ± 5.7%. The “Inhibition of [^3H]Nicotine binding” value in assay [2] stood at 0 ± 0%. In addition, in the assay on rat striatal slices, the inhibition at 0.1 µM worked out at 41 ± 15%.

Take `C(#Cc1cc(C#CCCC[n+]2ccc3c(c2)CCCC3)c(C#CCCC[n+]2ccc3c(c2)CCCC3)cc1C#CCCC[n+]1ccc2c(c1)CCCC2)CCC[n+]1ccc2c(c1)CCCC2.[Br-].[Br-].[Br-].[Br-]`: the “Inhibition of [^3H]MLA binding” value in assay [1] was 17 ± 8.9%. For the same molecule, in assay [2], the “Inhibition of [^3H]Nicotine binding” value is reported as 9.7 ± 9.7%. Moreover, in the assay on rat striatal slices, the inhibition at 0.1 µM came out at 24 ± 14%.

Take `CN1CCCC1c1ccc[n+](CCCCCc2cc(CCCCC[n+]3cccc(C4CCCN4C)c3)c(CCCCC[n+]3cccc(C4CCCN4C)c3)cc2CCCCC[n+]2cccc(C3CCCN3C)c2)c1.[Br-].[Br-].[Br-].[Br-]` (stereo not drawn): in assay [1], the “Inhibition of [^3H]MLA binding” value worked out at 26 ± 14%. Further, in assay [2], the “Inhibition of [^3H]Nicotine binding” value was 7.4 ± 4.7%. For the same molecule, the inhibition at 0.1 µM with rat striatal slices was 43 ± 21%.

Consider `Cc1cc[n+](CCCC#Cc2cc(C#CCCC[n+]3ccc(C)c(C)c3)c(C#CCCC[n+]3ccc(C)c(C)c3)cc2C#CCCC[n+]2ccc(C)c(C)c2)cc1C.[Br-].[Br-].[Br-].[Br-]`, for which, in assay [1], the “Inhibition of [^3H]MLA binding” value is on record as 0.6 ± 0.6%. Moreover, the “Inhibition of [^3H]Nicotine binding” value in assay [2] is reported as 9.8 ± 1.2%. Besides, in the assay on rat striatal slices, the inhibition at 0.1 µM is 17 ± 6%.

By inhibition is commonly meant the drop in the measured response relative to a control, in per cent. As a reminder, the IC50 is the concentration that gives 50% inhibition.
